{
  "source": "patent US12428396B2",
  "about": "“Fused pyridine ring derivative, preparation method therefor, and pharmaceutical use thereof” (priority 2019, dated 2025)",
  "key": {"[1]": {"assay": "Thermodynamic stability test of atropisomerism (LC-MS)", "type": "physicochemical", "procedure": "Agilent 1200 DAD model LC-MS; column: waters sunfire C18, 4.6×75 mm, 3.5 μm; mobile phase: water (0.1% trifluoroacetic acid):acetonitrile (0.1% trifluoroacetic acid).\nThe compounds of Examples 1-1a, 1-1b were atropisomers of each other and had different retention times in the LC-MS spectra, and the tautomerism of the atropisomers could be detected by LC-MS.\nCompound 1-1a (1.5 mg) was dissolved in acetonitrile (1.0 mL), and the reaction solution was heated at 40° C. for 1.0 h, and the change in purity of compound 1-1a was detected by LC-MS. Compound 1-1a (1.5 mg) was dissolved in dimethyl sulfoxide (1.0 mL), and the reaction solution was heated at 120° C. for 3.0 h, and the change in purity of compound 1-1a was detected by LC-MS.\nThe same procedure was used to test the change in purity of compound 1-1b at 40° C. and 120° C.\nThe compounds of Examples 5-1, 5-2 were atropisomers of each other and had different retention times in the LC-MS spectra, and the tautomerism of the atropisomers could be detected by LC-MS.\nCompound 5-1 (1.0 mg) was dissolved in DMSO (1.0 mL), and the reaction solution was heated at 37° C. and 120° C. for 3.0 h, respectively, and the change in purity of compound 5-1 was detected by LC-MS."}, "[2]": {"target": "T1, HIV-1 capsid protein (Human immunodeficiency virus type 1 group M subtype B, UniProt P12493)", "T1 construct": "made in house; host or cells: E. coli (pET30 vector)", "assay": "In vitro polymerization of HIV-1 capsid protein (His-CA/GST-CA, Eu cryptate/XL665 energy transfer)", "type": "biochemical, HIV-1 NL4-3", "from_the_text": "• 1. MAb Anti GST-Eu cryptate (Cisbio) • 2. MAb Anti 6HIS-XL665 (Cisbio) • 3. His tag HIV-1 capsid protein (hereinafter referred to as His-CA) • 4. GST tag HIV-1 capsid protein (hereinafter referred to as GST-CA) • 5. 384-well unbound surface microplate, white (Corning) • 6. Microplate reader (BMG)\nThe HIV-1 capsid proteins aggregate spontaneously in high-salt solutions. Capsid protein sequences derived from HIV-1 NL4-3 strains (GeneBank AF324493.2) were separately tagged with 6His tag and GST tag sequences at the C-terminus, cloned into pET30 vectors, and expressed and separately tagged for expression in E. coli system and purified. His-CA and GST-CA were mixed at high-salt concentrations, and the level of polymerization of capsid proteins was detected using GST antibody labeled with Eu3+-Cryptate (energy donor) and His antibody labeled with XL665 (energy acceptor). Since the excitation spectrum of Eu3+-Cryptate overlapped with the excitation spectrum of XL665, when the capsid proteins with these two tags formed a poly complex, the energy donor and the energy acceptor could be drawn to a sufficiently close distance, the energy donor released part of the captured energy under the excitation of an external light source (such as a xenon lamp or a laser), with the emission wavelength being 620 nM, part of the resonance was transferred to the energy acceptor to excite the energy acceptor, with the emission wavelength being 665 nM, and an optical signal was generated, the signal intensity of which was in direct proportion to the degree of polymerization of the tag proteins.\nHis-CA was diluted to 2 μM in a clean tube with protein diluent (50 mM Tris-HCl, pH 8.0, 50 mM NaCl, 0.4 mM MgCl2, 0.05% Triton X-100, 2% glycerol) while MAb Anti 6HIS-XL665 at a final concentration of 260 nM was added; GST-CA was diluted to 20 nM with protein diluent in another clean tube while MAb Anti GST-Eu cryptate at a final concentration of 3.33 nM was added and incubated on ice for half an hour. Compounds were first formulated into a concentration of 20 mM with DMSO, then diluted to a first concentration of 2 mM with DMSO and serially 5-fold diluted to the 8th concentration. Control wells were set and added with DMSO, and serially-diluted compounds were then 20-fold diluted with protein diluent to 10-fold working concentrations. Preparation of capsid protein polymerization liquid at 2-fold concentration: 50 mM Tris-HCl, pH 8.0, 1 M NaCl, 800 mM KF; to a pre-cooled white round-bottomed 384-well plate were added 4 uL of His-CA-His antibody mixture, 4 uL of GST-CA-GST antibody mixture, 2 uL of the compounds at 10-fold concentration and 10 uL of capsid protein polymerization reaction liquid at 2-fold concentration, the plate was sealed with a light-shielding sealing plate membrane after uniformly mixing, and the reaction plate was placed in a 37° C. incubator for incubation for 2 h. After incubation, the samples were excited with an excitation light at 337 nM, and signal values at 620 nM and 665 nM were collected for detection, wherein Ratio values=(665 nM/620 nM signal)×10000 was calculated according to the signal values. IC50 values for compounds were calculated using Graphpad Prism software based on each concentration of the compounds and the corresponding Ratio values."}},
  "data": [
    {"smiles": "CC(C)(C#Cc1nc([C@H](Cc2cc(F)cc(F)c2)NC(=O)Cn2nc(C(F)(F)F)c3c2C(F)(F)[C@@H]2C[C@H]32)c(-c2ccc(Cl)c3c(NS(C)(=O)=O)nn(CC(F)(F)F)c23)c2c1CCC2)S(C)(=O)=O", "note": "(atropisomer, axis not shown; (aR)) [Example 1-1, N—((S)-1-((R)-4-(4-chloro-3-(methanesulfonamide)-1-(2,2,2-trifluoroethyl)-1H-indazol-7-yl)-1-(3-methyl-3-(methylsulfonyl)but-1-yn-1-yl)-6,7-dihydro-5H-cyclopenta[c]pyridin-3-yl)-2-(3,5-difluorophenyl)ethyl)-2-((3bS,4aR)-5,5-difluoro-3-(trifluoromethyl)-3b,4,4a,5-tetrahydro-1H-cyclopropa[3,4]cyclopenta[1,2-c]pyrazol-1-yl)acetamide]", "values": [
      {"measurement": "atropisomer stability (change in purity by LC-MS)", "setting": "[1]; heated at 40° C. for 1.0 h in acetonitrile", "value": "stable single-configuration compounds"},
      {"measurement": "atropisomer stability (change in purity by LC-MS)", "setting": "[1]; heated at 120° C. for 3.0 h in dimethyl sulfoxide", "value": "stable single-configuration compounds"},
      {"measurement": "IC50", "setting": "[2]", "value": 9, "unit": "nM"},
      {"measurement": "Imax", "setting": "[2]; 37° C., 2 h incubation", "value": 100, "unit": "%"}
    ]}
  ]
}
